≈ marks a conversion by molar mass, not a printed value.
Tests used:
[1] = tested on: K. pneumoniae EN0262; details: commercial antibiotics, data provided by IMBIM, BMC, Uppsala University; cited from earlier work
[2] = tested on: S. flexneri APV00906; assay: MIC; type: cell-based; details: Shigella flexneri; S. flexneri APV00906; read-out: Antibiogram MIC
[3] = tested on: S. sonnei APV00908; assay: MIC; type: cell-based; details: Shigella sonnei; S. sonnei APV00908; read-out: Antibiogram MIC
[4] = tested on: S. flexneri APV00907; assay: MIC; type: cell-based; details: Shigella flexneri; S. flexneri APV00907; read-out: Antibiogram MIC
[5] = tested on: E. coli EN001; assay: MIC; type: cell-based, Escherichia coli; details: Escherichia coli, Combination 2, read-out: MIC, thymidine concentration
[6] = tested on: Citrobacter sp. EN0465; assay: MIC; type: cell-based; details: Combination 2, read-out: MIC, thymidine concentration
[7] = tested on: K. pneumoniae EN011; assay: MIC; type: cell-based, Klebsiella pneumoniae; details: Klebsiella pneumoniae; K. pneumoniae EN011; Combination 2; read-out: MIC, thymidine concentration
[8] = tested on: P. aeruginosa EN0459; assay: MIC; type: cell-based, Pseudomonas aeruginosa; details: Pseudomonas aeruginosa, Combination 2, read-out: MIC, thymidine concentration
[9] = tested on: P. mirabilis ST19 EN0445; assay: MIC; type: cell-based, Proteus mirabilis; details: Proteus mirabilis, ST19EN0445, Combination 2, read-out: MIC, thymidine concentration
[10] = tested on: E. coli EN013; assay: MIC; type: cell-based, Escherichia coli; details: Escherichia coli; E. coli EN013; Combination 2; read-out: MIC, thymidine concentration
[11] = tested on: P. aeruginosa EN0460; assay: MIC; type: cell-based, Pseudomonas aeruginosa; details: Pseudomonas aeruginosa, Combination 2, read-out: MIC, thymidine concentration
[12] = tested on: P. mirabilis EN0457; assay: MIC; type: cell-based, Proteus mirabilis; details: Proteus mirabilis, Combination 2, read-out: MIC, thymidine concentration
[13] = tested on: P. aeruginosa EN005; assay: MIC; type: cell-based, Pseudomonas aeruginosa; details: Pseudomonas aeruginosa, Combination 2, read-out: MIC, thymidine concentration
[14] = tested on: P. aeruginosa EN004; assay: MIC; type: cell-based, Pseudomonas aeruginosa; details: Pseudomonas aeruginosa, Combination 2, read-out: MIC, thymidine concentration
[15] = tested on: P. aeruginosa EN015; assay: MIC; type: cell-based, Pseudomonas aeruginosa; details: Pseudomonas aeruginosa; P. aeruginosa EN015; Combination 2; read-out: MIC, thymidine concentration
[16] = tested on: E. coli B EN0458; assay: MIC; type: cell-based, Escherichia coli B; details: Escherichia coli, BEN0458, Combination 2, read-out: MIC, thymidine concentration
[17] = tested on: S. typhimurium EN0466; assay: MIC; type: cell-based, Salmonella typhimurium; details: Salmonella enterica, Combination 2, read-out: MIC, thymidine concentration
[18] = tested on: S. marescens EN0454; assay: MIC; type: cell-based, Serratia marescens; details: Serratia, Combination 2, read-out: MIC, thymidine concentration
[19] = tested on: K. pneumoniae EN010; assay: MIC; type: cell-based, Klebsiella pneumoniae; details: Klebsiella pneumoniae, Combination 2, read-out: MIC, thymidine concentration
[20] = tested on: P. aeruginosa EN0422; assay: MIC; type: cell-based, Pseudomonas aeruginosa; details: Pseudomonas aeruginosa, Combination 2, read-out: MIC, thymidine concentration
[21] = tested on: A. baumannii EN007; assay: MIC; type: cell-based, Acinetobacter baumannii; details: Acinetobacter baumannii, Combination 2, read-out: MIC, thymidine concentration
[22] = tested on: K. oxytoca EN0392; assay: MIC; type: cell-based, Klebsiella oxytoca; details: Klebsiella oxytoca, Combination 2, read-out: MIC, thymidine concentration
[23] = tested on: E. aerogenes EN0461; assay: MIC; type: cell-based, Enterobacter aerogenes; details: Klebsiella aerogenes, Combination 2, read-out: MIC, thymidine concentration
[24] = tested on: E. coli EN002; assay: MIC; type: cell-based, Escherichia coli; details: Escherichia coli, Combination 2, read-out: MIC, thymidine concentration
[25] = tested on: M. luteus EN0455; assay: MIC; type: cell-based, Micrococcus luteus; details: Micrococcus luteus, Combination 2, read-out: MIC, thymidine concentration
[26] = tested on: K. pneumoniae EN006; assay: MIC; type: cell-based, Klebsiella pneumoniae; details: Klebsiella pneumoniae, Combination 2, read-out: MIC, thymidine concentration
[27] = tested on: A. baumannii EN017; assay: MIC; type: cell-based, Acinetobacter baumannii; details: Acinetobacter baumannii; A. baumannii EN017; Combination 2; read-out: MIC, thymidine concentration
[28] = tested on: E. coli EN003; assay: MIC; type: cell-based, Escherichia coli; details: Escherichia coli, Combination 2, read-out: MIC, thymidine concentration
[29] = tested on: P. aeruginosa EN014; assay: MIC; type: cell-based, Pseudomonas aeruginosa; details: Pseudomonas aeruginosa, Combination 2, read-out: MIC, thymidine concentration
[30] = tested on: S. epidermidis EN0456; assay: MIC; type: cell-based, Staphylococcus epidermidis; details: Staphylococcus epidermidis, Combination 2, read-out: MIC, thymidine concentration
[31] = tested on: S. aureus EN008; assay: MIC; type: cell-based, Staphylococcus aureus; details: Staphylococcus aureus, Combination 2, read-out: MIC, thymidine concentration
[32] = tested on: A. baumannii EN016; assay: MIC; type: cell-based, Acinetobacter baumannii; details: Acinetobacter baumannii, Combination 2, read-out: MIC, thymidine concentration
[33] = tested on: E. coli EN012; assay: MIC; type: cell-based, Escherichia coli; details: Escherichia coli, Combination 2, read-out: MIC, thymidine concentration
[34] = tested on: K. pneumoniae EN0463; assay: MIC; type: cell-based, Klebsiella pneumoniae; details: Klebsiella pneumoniae, Combination 2, read-out: MIC, thymidine concentration
[35] = tested on: A. pittii or A. nosocomialis EN0180; assay: MIC; type: cell-based, Acinetobacter pittii or nosocomialis; details: Combination 2, read-out: MIC, thymidine concentration
[36] = tested on: E. coli; details: Ciprofloxacin 14 mg/kg; single mice

C[C@@H](O)[C@H]1C(=O)N2C(C(=O)O)=C(S[C@@H]3CN[C@H](C(=O)N(C)C)C3)[C@H](C)[C@H]12 [meropenem]
MIC [1]: >8 µg/mL | MIC [2]: ≤ 0.25 µg/mL | MIC [3]: ≤ 0.25 µg/mL | MIC [4]: ≤ 0.25 µg/mL

C[C@H]1[C@H](NC(=O)/C(=N\OC(C)(C)C(=O)O)c2csc(N)n2)C(=O)N1S(=O)(=O)O [aztreonam]
MIC [1]: >16 µg/mL

Cc1cn([C@H]2C[C@H](O)[C@@H](CO)O2)c(=O)[nH]c1=O [Thymidine, thymidine]
MIC [5]: 30 µM | MIC [6]: > 120 µM | MIC [7]: 8 µM | MIC [8]: > 120 µM | MIC [9]: > 120 µM | MIC [10]: < 0.2 µM | MIC [11]: > 120 µM | MIC [12]: > 120 µM | MIC [13]: 30 µM | MIC [14]: > 120 µM | MIC [15]: 60 µM | MIC [16]: < 0.2 µM | MIC [17]: 15 µM | MIC [18]: > 120 µM | MIC [19]: 30 µM | MIC [20]: > 120 µM | MIC [21]: > 120 µM | MIC [22]: 15 µM | MIC [23]: 60 µM | MIC [24]: 4 µM | MIC [25]: > 120 µM | MIC [26]: 15 µM | MIC [27]: 30 µM | MIC [28]: < 0.2 µM | MIC [29]: > 120 µM | MIC [30]: 60 µM | MIC [31]: > 120 µM | MIC [32]: > 120 µM | MIC [33]: < 0.2 µM | MIC [34]: 8 µM | MIC [35]: > 120 µM

CO/N=C(\C(=O)N[C@@H]1C(=O)N2C(C(=O)[O-])=C(C[N+]3(C)CCCC3)CS[C@H]12)c1csc(N)n1 [cefepime]
MIC [1]: >16 µg/mL | MIC [2]: 2 µg/mL (≈ 4.16 µM) | MIC [3]: ≤ 1 µg/mL | MIC [4]: ≤ 1 µg/mL

C[C@@H](O)[C@H]1C(=O)N2C(C(=O)O)=C(S[C@@H]3CN[C@H](C(=O)Nc4cccc(C(=O)O)c4)C3)[C@H](C)[C@H]12 [Ertapenem]
MIC [2]: ≤ 0.5 µg/mL | MIC [3]: ≤ 0.5 µg/mL | MIC [4]: ≤ 0.5 µg/mL

O=C1CN(/N=C/c2ccc([N+](=O)[O-])o2)C(=O)N1 [Nitrofurantoin]
MIC [2]: ≤ 16 µg/mL | MIC [3]: ≤ 16 µg/mL | MIC [4]: ≤ 16 µg/mL

CC1(C)S[C@@H]2[C@H](NC(=O)[C@H](N)c3ccccc3)C(=O)N2[C@H]1C(=O)O [ampicillin]
MIC [1]: >128 µg/mL

CC(C)(O/N=C(\C(=O)N[C@@H]1C(=O)N2C(C(=O)[O-])=C(C[n+]3ccccc3)CS[C@H]12)c1csc(N)n1)C(=O)O [ceftazidime]
MIC [1]: >32 µg/mL | MIC [2]: 16 µg/mL (≈ 29.3 µM) | MIC [3]: ≤ 1 µg/mL | MIC [4]: ≤ 1 µg/mL

C[C@@H](O)[C@H]1C(=O)N2C(C(=O)O)=C(SCCN=CN)C[C@H]12 [imipenem]
MIC [2]: ≤ 0.25 µg/mL | MIC [3]: ≤ 0.25 µg/mL | MIC [4]: ≤ 0.25 µg/mL

O=C(O)c1cn(C2CC2)c2cc(N3CCNCC3)c(F)cc2c1=O [ciprofloxacin]
MIC [1]: >2 µg/mL | MIC [2]: ≤ 0.25 µg/mL | MIC [3]: ≤ 0.5 µg/mL | MIC [4]: ≤ 0.5 µg/mL | score at sampling [36]: 0

Source: patent publication US10828316B2, “Method of treating bacterial infections” (priority 2016, dated 2020)
